Results reported in PMC4406878 (Pharmaceutical research, 2011).

Tested on: PSMA
Conditions: 2 nM DHT, 48 h, 5% charcoal-stripped FBS RPMI-1640, Western blot

C[C@]12CCC(=O)C[C@@H]1CC[C@@H]1[C@@H]2CC[C@]2(C)[C@@H](O)CC[C@@H]12 [DHT, 5-α-dihydrotestosterone]
PSMA expression in LNCaP cells: substantially inhibited
